Read-outs that look alike come from different tables or passages of the source. Marks after values point to notes of the source that are not given here.
Experiments:
pancreatic carcinoma [1] = conditions: second line, cited from earlier work
[2] = test system: locally advanced and metastatic pancreatic carcinoma; conditions: first line therapy; n = 171 per arm; cited from earlier work
pancreatic carcinoma [3] = assay: Second line therapy following progression on FOLFIRINOX (literature studies); assay type: in vivo, human; conditions: Overall (mean)
From the text: Overall Survival (OS) increased from 6.8 months with Gemcitabine to 11.1 months with FOLFIRINOX (p<0.001). However, the Complete Response Rate (CR) was only 0.6%.

[4] = test system: human renal cell carcinoma xenografts (786-0); conditions: Hubbell, 1990, cited from earlier work
B16-F10 melanoma tumors = conditions: Day 30, n = 10; for Number of Complete Responses (CR): RECIST v1.1
Protocol: Rintatolimod together with anti-PD-L1 antibodies were tested for anti-tumor activity against established subcutaneous B16 melanoma tumors in C57BL/6 mice. Mice (10 animals per group) were inoculated with 0.4×10E6 B16-F10 tumor cells in their shaved rear flanks. Seven days later (when tumors reached 0.3 to 0.5 cm in their largest diameter), mice were randomized for tumor sizes, and individually tagged and were allocated to the following six treatment groups: • No treatment (negative controls) • Rintatolimod alone 100 μg/dose 4× • Rintatolimod alone 250 μg/dose 4× • Anti-PD-L1 mAb alone • Rintatolimod 100 μg/dose 4× plus anti-PD-L1 mAb • Rintatolimod 250 μg/dose 4× plus anti-PD-L1 mAb
Rintatolimod was injected intravenously at 100 or 250 micrograms/dose and was repeated 4 times, 5 days apart. Anti-PD-L1 mAb (clone 10F.9G2, BioXCell) was administered intraperitoneally on Days 1 and 3 after each rintatolimod injection at a 200 microgram/dose. Tumors were measured 3 times per week using a set of calipers, taking measurement of 2 opposing diameters and were recorded as tumor areas.
Results were presented as tumor sizes for individual mice throughout time of therapy, average tumor size in each group and survival up to Day 30 (time to euthanasia).
[sequence] and anti-PD-L1 antibodies were tested for anti-tumor activity against established subcutaneous B16 melanoma tumors in C57BL/6 mice. Briefly, mice (10 animals per group) were inoculated with 0.4×10E6 (i.e., 400,000) B16-F10 tumor cells in their shaved rear flanks. Seven days later, mice were randomized to six treatment groups as follows: (Group 1) No treatment (negative controls); (Group 2) [sequence] alone 100 μg/dose 4λ; (Group 3) [sequence] alone 250 μg/dose 4λ; (Group 4) Anti-PD-L1 mAb alone; (Group 5) [sequence] 100 μg/dose 4× plus anti-PD-L1 mAb; (Group 6) [sequence] 250 μg/dose 4× plus anti-PD-L1 mAb. mAb refers to monoclonal antibody.
[sequence] was injected IV at 100 or 250 μg/dose 4 times, 5 days apart. Anti-PD-L1 mAb was administered IP on Days 1 and 3 after each [sequence] dose at 200 μg/dose. Tumors were measured 3 times per week using calipers, measuring 2 opposing diameters. […] Results were presented as tumor sizes for individual mice throughout time of therapy up to Day 30.

[5] = test system: human renal cell carcinoma xenografts (786-0); assay: Human renal cell carcinoma (786-0) xenografts in nude mice; assay type: in vivo; conditions: monotherapy
pancreatic tumors = assay type: in vivo, mice; conditions: n = 8 each
From the text: This is highly relevant for improving the likelihood of an antitumor response to checkpoint blockade.
See, FIG. 4, panels labeled “Time-to-tumor progression.”

[6] = test system: human bladder tumor xenografts; assay: Human bladder tumor xenografts in nude mice; assay type: in vivo

Nc1ccn([C@@H]2O[C@H](CO)[C@@H](O)C2(F)F)c(=O)n1 [Gemcitabine]
Progression Free Survival (PFS) (months) (pancreatic carcinoma [1]; Gilabert, et al. 2017, 72 patients): 2.5 months | Overall Survival (OS) (months) (pancreatic carcinoma [1]; Viaud, et al 2017, 96 patients): 3.7 months | Progression Free Survival (PFS) (months) (pancreatic carcinoma [1]; Viaud, et al 2017): 2.1 months | Overall Survival (OS) (months) (pancreatic carcinoma [1]; da Rocha, et al. 2015, 20 patients): 5.7 months | Progression Free Survival (PFS) (months) (pancreatic carcinoma [1]; da Rocha, et al. 2015): 2.0 months | Complete Response Rates (CR) (%) [2]: (0) % | Complete Response Rates (CR) n [2]: 0 n | Overall Survival (OS) (months) [2]: 6.8 months | Partial Response Rates (PR) (%) [2]: (9.4) % | Partial Response Rates (PR) n [2]: 16 n | Progression Free Survival (PFS) (months) [2]: 3.3 months | Partial Response Rates (PR) (%) (pancreatic carcinoma [3]; weighted average): 6.4%* | Progression Free Survival (PFS) (months) (pancreatic carcinoma [3]; weighted average): 2.24* months | Overall Survival (OS) (months) (pancreatic carcinoma [3]; weighted average based on n in each study): 4.05* months

polyriboinosinic: polyribocytidylic(12:1)uridylic acid
tumor growth inhibition ([4]; p<0.001): statistically significant | survival ([4]; p<0.002): statistically significant | Number of Partial Responses (PR) (B16-F10 melanoma tumors; rintatolimod 100 μg/dose 4× IV): 0 | Total # Tumor Responses CR + PR (B16-F10 melanoma tumors; rintatolimod 100 μg/dose 4× IV): 0 | Number of Complete Responses (CR) (B16-F10 melanoma tumors; rintatolimod 100 μg/dose 4× IV): 0 | Number of Partial Responses (PR) (B16-F10 melanoma tumors; rintatolimod 250 μg/dose 4× IV): 0 | Total # Tumor Responses CR + PR (B16-F10 melanoma tumors; rintatolimod 250 μg/dose 4× IV): 0 | Number of Complete Responses (CR) (B16-F10 melanoma tumors; rintatolimod 250 μg/dose 4× IV): 0 | tumor regression [5]: tumor regression was observed in each mouse | mice free of residual tumor ([5]; while 100% of the control group had died): 90% | Increased Survival Over Control (pancreatic tumors; difference to control (33)): 0 days | Time to Progression Median-Days (pancreatic tumors; initial results): 33 days | growth of human bladder tumor xenografts [6]: significantly inhibited
